Laboratory results: US10047051B2, “Substituted pyridines and method of use” (AbbVie S.á{acute over (.)}r.l., priority 2015, dated 2018)

How the values were obtained:
CFTR G551D mutant = biological target: T1, CFTR G551D mutant (Homo sapiens, UniProt P13569, G551D); test: YFP-halide influx assay for the CFTR-G551D mutation (HEK293 cells); format: cell-based; conditions: forskolin 10.67 μM
T1 construct: expressed in transfected cells; host or cells: HEK293 cells, reverse transfection with plasmids
How it was run: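 Channel opening read as I⁻-driven quenching of a YFP H148Q/I152L/F47L reporter over 7 s post-injection, expressed as 1−F/F0 and fitted against concentration for EC50. Cells were HEK293 co-transfected at seeding with G551D CFTR plus reporter, then grown 24 h at 37 °C, 5% CO2.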

CFTR ΔF508 mutant = biological target: T2, CFTR ΔF508 mutant (Homo sapiens, UniProt P13569, DEL508-508); test: YFP-halide influx assay for the CFTR-ΔF508 mutation (CFBE41o- cells); format: cell-based; conditions: forskolin 10.67 μM; for EC50: from (1−F/F0) vs concentration plot
T2 construct: expressed in transfected cells; host or cells: CFBE41o- cells, adenoviral transduction
How it was run: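 EC50 derived from plotting 1−F/F0 (fluorescence 36 s after iodide injection over pre-injection value) against compound concentration. Cells: CFBE41o- transduced with ΔF508-CFTR and YFP quench reporter, corrected 24 h at 27° C or by a CFTR modulator at 37° C.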

T2 sequence (P13569 with tags, fused parts or gaps DEL508-508): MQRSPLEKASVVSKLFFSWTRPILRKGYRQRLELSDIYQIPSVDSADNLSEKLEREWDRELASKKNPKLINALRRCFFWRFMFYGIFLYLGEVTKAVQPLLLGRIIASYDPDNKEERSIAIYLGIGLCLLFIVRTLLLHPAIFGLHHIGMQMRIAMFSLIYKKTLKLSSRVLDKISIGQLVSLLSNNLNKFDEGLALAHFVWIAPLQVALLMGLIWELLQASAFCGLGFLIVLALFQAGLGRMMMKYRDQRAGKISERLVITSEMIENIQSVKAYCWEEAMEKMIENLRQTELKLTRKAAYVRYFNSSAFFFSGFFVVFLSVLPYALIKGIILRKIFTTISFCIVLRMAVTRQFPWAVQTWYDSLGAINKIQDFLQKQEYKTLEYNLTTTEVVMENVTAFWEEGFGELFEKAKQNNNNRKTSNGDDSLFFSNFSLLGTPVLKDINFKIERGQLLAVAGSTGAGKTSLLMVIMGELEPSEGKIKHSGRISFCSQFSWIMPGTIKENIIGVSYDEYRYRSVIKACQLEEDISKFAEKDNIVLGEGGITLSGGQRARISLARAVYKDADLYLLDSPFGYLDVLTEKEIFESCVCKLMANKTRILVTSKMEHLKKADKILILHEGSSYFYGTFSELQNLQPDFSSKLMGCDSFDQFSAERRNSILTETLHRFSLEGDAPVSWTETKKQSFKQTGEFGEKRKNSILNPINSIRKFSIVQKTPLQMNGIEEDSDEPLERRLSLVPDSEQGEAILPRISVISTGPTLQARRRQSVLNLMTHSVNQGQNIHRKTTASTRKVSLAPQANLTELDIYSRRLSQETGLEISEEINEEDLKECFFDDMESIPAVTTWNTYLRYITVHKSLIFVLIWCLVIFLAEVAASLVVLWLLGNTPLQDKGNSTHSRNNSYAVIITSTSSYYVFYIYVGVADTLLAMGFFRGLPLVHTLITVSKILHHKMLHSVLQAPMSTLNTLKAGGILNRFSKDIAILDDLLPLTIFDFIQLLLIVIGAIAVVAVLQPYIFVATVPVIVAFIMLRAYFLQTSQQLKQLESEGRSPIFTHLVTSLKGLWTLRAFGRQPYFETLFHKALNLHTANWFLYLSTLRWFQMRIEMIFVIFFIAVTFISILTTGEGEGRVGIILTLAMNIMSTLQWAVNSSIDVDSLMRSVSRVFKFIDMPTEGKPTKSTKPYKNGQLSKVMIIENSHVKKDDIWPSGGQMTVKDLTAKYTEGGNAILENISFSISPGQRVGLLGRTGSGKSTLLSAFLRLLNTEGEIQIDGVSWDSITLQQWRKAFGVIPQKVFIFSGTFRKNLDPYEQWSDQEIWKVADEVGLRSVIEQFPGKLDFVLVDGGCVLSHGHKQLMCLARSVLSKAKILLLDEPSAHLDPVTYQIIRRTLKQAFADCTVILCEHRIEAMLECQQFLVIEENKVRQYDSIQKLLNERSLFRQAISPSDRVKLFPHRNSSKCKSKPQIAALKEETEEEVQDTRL
T1 sequence (P13569 whole entry G551D): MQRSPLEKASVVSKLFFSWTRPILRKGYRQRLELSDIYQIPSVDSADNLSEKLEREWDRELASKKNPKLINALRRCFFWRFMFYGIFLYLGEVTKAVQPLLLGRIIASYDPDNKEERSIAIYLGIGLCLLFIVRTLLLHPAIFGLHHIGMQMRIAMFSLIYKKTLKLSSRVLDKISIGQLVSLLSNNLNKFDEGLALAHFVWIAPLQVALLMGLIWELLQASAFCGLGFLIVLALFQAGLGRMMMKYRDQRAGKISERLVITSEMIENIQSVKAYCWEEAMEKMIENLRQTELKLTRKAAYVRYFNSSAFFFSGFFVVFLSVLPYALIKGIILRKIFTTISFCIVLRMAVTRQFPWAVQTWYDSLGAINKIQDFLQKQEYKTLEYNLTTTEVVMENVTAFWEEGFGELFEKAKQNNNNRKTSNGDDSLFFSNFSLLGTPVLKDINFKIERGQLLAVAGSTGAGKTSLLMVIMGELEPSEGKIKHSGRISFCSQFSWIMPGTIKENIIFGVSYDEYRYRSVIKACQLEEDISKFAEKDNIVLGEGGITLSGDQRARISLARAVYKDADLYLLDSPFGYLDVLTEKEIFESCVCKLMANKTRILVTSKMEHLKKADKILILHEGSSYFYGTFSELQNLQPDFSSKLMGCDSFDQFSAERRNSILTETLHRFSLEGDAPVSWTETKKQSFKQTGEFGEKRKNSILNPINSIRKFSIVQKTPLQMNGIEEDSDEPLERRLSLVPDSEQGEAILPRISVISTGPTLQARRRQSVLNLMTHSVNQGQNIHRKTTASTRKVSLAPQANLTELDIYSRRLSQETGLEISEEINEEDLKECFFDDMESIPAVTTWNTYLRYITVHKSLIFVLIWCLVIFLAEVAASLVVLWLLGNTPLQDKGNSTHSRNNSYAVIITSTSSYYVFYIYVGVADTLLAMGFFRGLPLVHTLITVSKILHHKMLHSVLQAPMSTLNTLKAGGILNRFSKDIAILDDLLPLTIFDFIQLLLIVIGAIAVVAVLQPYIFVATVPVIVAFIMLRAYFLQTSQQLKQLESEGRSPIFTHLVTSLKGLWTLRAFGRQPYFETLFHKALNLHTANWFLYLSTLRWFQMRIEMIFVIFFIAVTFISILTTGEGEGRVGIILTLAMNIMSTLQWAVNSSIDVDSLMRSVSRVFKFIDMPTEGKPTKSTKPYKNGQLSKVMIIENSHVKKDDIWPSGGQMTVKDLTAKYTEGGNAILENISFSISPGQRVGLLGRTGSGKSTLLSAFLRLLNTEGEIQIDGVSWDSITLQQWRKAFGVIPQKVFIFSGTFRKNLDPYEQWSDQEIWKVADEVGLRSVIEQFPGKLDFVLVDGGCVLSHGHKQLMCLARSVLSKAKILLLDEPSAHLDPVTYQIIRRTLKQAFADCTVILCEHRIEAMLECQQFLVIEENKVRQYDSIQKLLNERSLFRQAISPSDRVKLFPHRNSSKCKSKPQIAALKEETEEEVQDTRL

Row | Structure (SMILES) | % Activation (CFTR G551D mutant) [%] | EC50 (CFTR G551D mutant) [nM] | % Activation (CFTR ΔF508 mutant) [%] | EC50 (CFTR ΔF508 mutant) [nM]
1 | Nc1cc(S(=O)(=O)c2ccc(OC(F)(F)F)cc2)cnc1C(=O)NCC1CC1 [Compound 155, 3-amino-N-(cyclopropylmethyl)-5-{[4-(trifluoromethoxy)phenyl]sulfonyl}pyridine-2-carboxamide] | 80.2 | 987 | 108.0 | 81.2
2 | CC1CCOCC1CNC(=O)c1ncc(S(=O)(=O)c2ccc(OC(F)(F)F)cc2)cc1N (stereo not shown) [Compound 156, 3-amino-N-[(4-methyltetrahydro-2H-pyran-3-yl)methyl]-5-{[4-(trifluoromethoxy)phenyl]sulfonyl}pyridine-2-carboxamide] | 63.5 | 1390 | 94.0 | 238
3 | Nc1cc(S(=O)(=O)c2ccc(C(F)(F)F)cc2)cnc1C(=O)N1CC(C(F)(F)F)C1 [Compound 157, (3-amino-5-{[4-(trifluoromethyl)phenyl]sulfonyl}pyridin-2-yl)[3-(trifluoromethyl)azetidin-1-yl]methanone] | 28.8 | > 10000 | 101.2 | 33.7
4 | Nc1cc(S(=O)(=O)c2ccc(C(F)(F)F)cc2)cnc1C(=O)N1CC(OC(F)F)C1 [Compound 158, (3-amino-5-{[4-(trifluoromethyl)phenyl]sulfonyl}pyridin-2-yl)[3-(difluoromethoxy)azetidin-1-yl]methanone] | 29.2 | > 10000 | 114.3 | 31.6
5 | CC(C)C1(O)CN(C(=O)c2ncc(S(=O)(=O)c3ccc(C(F)(F)F)cc3)cc2N)C1 [Compound 159, (3-amino-5-{[4-(trifluoromethyl)phenyl]sulfonyl}pyridin-2-yl)[3-hydroxy-3-(propan-2-yl)azetidin-1-yl]methanone] | 46.6 | 238 | 111.1 | 4.4
6 | Nc1cc(S(=O)(=O)c2ccc(C(F)(F)F)cc2F)cnc1C(=O)N1CC(C(F)(F)F)C1 [Compound 160, (3-amino-5-{[2-fluoro-4-(trifluoromethyl)phenyl]sulfonyl}pyridin-2-yl)[3-(trifluoromethyl)azetidin-1-yl]methanone] | 52.7 | 566 | 113.9 | 23.6
7 | Nc1cc(S(=O)(=O)c2ccc(C(F)(F)F)cc2F)cnc1C(=O)N1CC(OC(F)F)C1 [Compound 161, (3-amino-5-{[2-fluoro-4-(trifluoromethyl)phenyl]sulfonyl}pyridin-2-yl)[3-(difluoromethoxy)azetidin-1-yl]methanone] | 45.8 | 681 | 97.3 | 21.5
8 | CC(C)C1(O)CN(C(=O)c2ncc(S(=O)(=O)c3ccc(C(F)(F)F)cc3F)cc2N)C1 [Compound 162, (3-amino-5-{[2-fluoro-4-(trifluoromethyl)phenyl]sulfonyl}pyridin-2-yl)[3-hydroxy-3-(propan-2-yl)azetidin-1-yl]methanone] | 68.0 | 255 | 101.8 | 2.7
9 | COCCC(C)(O)CNC(=O)c1ncc(S(=O)(=O)c2ccc(C(F)(F)F)cc2F)cc1N (stereo not shown) [Compound 163, 3-amino-5-{[2-fluoro-4-(trifluoromethyl)phenyl]sulfonyl}-N-(2-hydroxy-4-methoxy-2-methylbutyl)pyridine-2-carboxamide] | 71.9 | 2300 | 97.0 | 22.6
10 | Nc1cc(S(=O)(=O)c2ccc(C(F)(F)F)cc2F)cnc1C(=O)N1CC(F)(F)C1 [Compound 164, (3-amino-5-{[2-fluoro-4-(trifluoromethyl)phenyl]sulfonyl}pyridin-2-yl)(3,3-difluoroazetidin-1-yl)methanone] | 71.5 | 683 | 102.0 | 8.2
